Test results published in publication PMC10485906, “Development of a Dihydroquinoline–Pyrazoline GluN2C/2D-Selective Negative Allosteric Modulator of the N-Methyl-D-aspartate Receptor” (ACS Chemical Neuroscience, 2023).
Values joined by “and” are separate entries in the source; they are usually repeats but may differ in a detail not shown here. Identical values can stand only once. Like-named read-outs stand apart in the source and are kept apart here.

Assay: Mouse plasma and brain pharmacokinetics, IP administration
Type: in vivo
Settings: for concentration at 0.25 h / concentration at 0.5 h / concentration at 1 h / concentration at 2 h / concentration at 4 h: intraperitoneal; for AUC: read-out: AUC0.25–4 h brain; for AUC(0-t): read-out: AUC0.25–4 h plasma (AUCLAST)
Experimental: IACUC-approved protocols and animal welfare regulations outlined in the “Guide for the Care and Use of Laboratory Animals” were both followed during the pharmacokinetic evaluation of all compounds. In vivo analysis was performed by Pharmaron (IP administration, Irvine, CA) and Sai Life (IV administration, Hinjewadi Pune, Pune, India).
A group (n = 15) of fed, male C57BL/6 mice ∼6 to 8 weeks of age was injected IP with 10 mg/kg (1 mg/mL) of drug using 50% PEG400 in water as a vehicle. Samples were collected from the blood and brain at 0.25, 0.5, 1, 2, and 4 h after administration (3 mice per time point) following CO2 anesthesia. Collection from the brain was performed as follows: the mouse is terminally anaesthetized via rising concentration of CO2 and as much blood is removed as possible via cardiac puncture. The cardiac puncture is done by opening the chest cavity to expose the heart, cutting an incision in the right auricle using surgical scissors, and finally injecting a saline solution (∼10 mL) slowly into the left ventricle via a syringe. The mouse is placed head down at a 45° angle to facilitate blood removal. After perfusion, the skull is opened and the brain is removed. The whole brain is washed with saline, dried with surgical gauze, placed in tared tubes, and stored at −75 °C before analysis. For plasma sample preparation at the 0.25–2 h time points, 15 μL of blank solution, 30 μL of plasma sample, and 150 μL were added sequentially for protein precipitation. After centrifugation, 20 μL of the supernatant and 80 μL of collection buffer were combined, and thus, the final compound concentration in plasma (ng/mL) was corrected by multiplying by 5. For plasma sample preparation at the 4 h time point, 15 μL of blank solution, 30 μL of plasma sample, and 150 μL of acetonitrile were added sequentially for protein precipitation. For all brain sample preparation, 15 μL of blank solution, 30 μL of brain samples, and 150 μL of acetonitrile were added sequentially for protein precipitation. Brain samples were prepared by adding brain (g) to deionized water (mL) in a 1:4 ratio for homogenization. The mixtures were then vortexed for 30 s and subsequently centrifuged (∼4000 rpm) for 15 min. The supernatant was diluted 3-fold with water, and a 2 μL aliquot of the diluted supernatant was injected into a Shimadzu LC-30A LC-MS/MS system with a Phenomenex 2.6 μ PFP 100A column (30 mm × 2.1 mm) using verapamil as an internal standard. A gradient from 95% water (0.1% formic acid) to 95% ACN (0.1% formic acid) was run over 2 min at a flow rate of 0.6 mL/min. Brain and blood samples were collected at 15, 30, 60, 120, and 240 min from three C57Bl/6 mice at each time point. See Tables S6–S10 for 2i concentrations.

[1] = male, C57BL/6, mouse, brain, 10 mg/kg IP
[2] = male, C57BL/6, mouse, brain, 10 mg/kg IP, read-out: Tmax brain
[3] = male, C57BL/6, mouse, plasma, 10 mg/kg IP
[4] = male, C57BL/6, mouse, plasma, 10 mg/kg IP, read-out: Tmax plasma
[5] = male, C57BL/6, mouse, plasma, 10 mg/kg IP, read-out: t1/2 plasma (converted)
[6] = male, mouse, plasma, 10 mg/kg IP, C57BL/6 mice

O=C(O)CC(F)(F)C(=O)N1N=C(c2c(-c3ccc(Cl)cc3)c3ccccc3[nH]c2=O)CC1c1ccc(Cl)cc1 (centres unmarked) [2i]
AUC % Extrapolation brain (10 mg/kg IP): 58%
AUC % Extrapolation plasma (10 mg/kg IP): 15%
AUCINF brain (10 mg/kg IP): 151 ng·h/g
AUCLAST brain (10 mg/kg IP): 64 ng·h/g
Cmax brain (10 mg/kg IP): 0.040 µM and 23 ng/g
Cmax brain (10 mg/kg IP, C57BL/6 mice): 23 ng/mL
Brain/plasma Ratio, individual (Group 1-3) (10 mg/kg IP, 0.25 h): 0.012 and 0.019
brain calculated concentration, individual (Group 1-3) (10 mg/kg IP, 0.25 h): 17.9 ng/g and 22.6 ng/g
plasma concentration, individual (Group 1-3) (10 mg/kg IP, 0.25 hr): 1500.0 ng/mL and 1180.0 ng/mL
Brain/plasma Ratio, individual (Group 1-3) (10 mg/kg IP, 0.5 h): 0.008 and 0.023 and 0.011
brain calculated concentration, individual (Group 1-3) (10 mg/kg IP, 0.5 h): 29.1 ng/g and 18.7 ng/g
plasma concentration, individual (Group 1-3) (10 mg/kg IP, 0.5 hr): 2620.0 ng/mL and 1260.0 ng/mL and 1740.0 ng/mL
brain calculated concentration, individual (Group 1-3) (10 mg/kg IP, 1 h): 16.5 ng/g and 14.9 ng/g
plasma concentration, individual (Group 1-3) (10 mg/kg IP, 1 hr): 1270.0 ng/mL and 1170.0 ng/mL
Brain/plasma Ratio, individual (Group 1-3) (10 mg/kg IP, 2 h): 0.016 and 0.022
brain calculated concentration, individual (Group 1-3) (10 mg/kg IP, 2 h): 18.0 ng/g and 24.3 ng/g
plasma concentration, individual (Group 1-3) (10 mg/kg IP, 2 hr): 1140.0 ng/mL and 1080.0 ng/mL
Brain/plasma Ratio, individual (Group 1-3) (10 mg/kg IP, 4 h): 0.058 and 0.050 and 0.022
brain calculated concentration, individual (Group 1-3) (10 mg/kg IP, 4 h): 10.4 ng/g and 12.8 ng/g
plasma concentration, individual (Group 1-3) (10 mg/kg IP, 4 hr): 163.0 ng/mL and 208.0 ng/mL and 585.0 ng/mL
brain concentration in brain compartment (IP administration): 40 nM
brain concentration, upper limit if restricted to extracellular space (IP administration): ≤ 200 nM
Kp at 1 h (male, C57BL/6, mouse, brain and plasma, ip, 10 mg/kg, 10 mg/kg IP, 1 h, read-out: Brain/plasma Ratio, Mean): 0.013
Kp at 2 h (male, C57BL/6, mouse, brain and plasma, ip, 10 mg/kg, 10 mg/kg IP, 2 h, read-out: Brain/plasma Ratio, Mean): 0.018
Kp at 2 h (male, C57BL/6, mouse, brain and plasma, ip, 10 mg/kg, 10 mg/kg IP, 2 h, read-out: Brain/plasma Ratio, individual (Group 1-3)): 0.015
Kp at 4 h (male, C57BL/6, mouse, brain and plasma, ip, 10 mg/kg, 10 mg/kg IP, 4 h, read-out: Brain/plasma Ratio, Mean): 0.043
concentration at 0.25 h (male, C57BL/6, mouse, brain, 10 mg/kg, 10 mg/kg IP, 0.25 h, read-out: brain calculated concentration, Mean): 17.5 ng/g
concentration at 0.25 h (male, C57BL/6, mouse, brain, 10 mg/kg, 10 mg/kg IP, 0.25 h, read-out: brain calculated concentration, individual (Group 1-3)): 12 ng/g
concentration at 0.5 h (male, C57BL/6, mouse, brain, 10 mg/kg, 10 mg/kg IP, 0.5 h, read-out: brain calculated concentration, Mean): 22.8 ng/g
concentration at 0.5 h (male, C57BL/6, mouse, brain, 10 mg/kg, 10 mg/kg IP, 0.5 h, read-out: brain calculated concentration, individual (Group 1-3)): 20.6 ng/g
concentration at 1 h (male, C57BL/6, mouse, brain, 10 mg/kg, 10 mg/kg IP, 1 h, read-out: brain calculated concentration, Mean): 14.6 ng/g
concentration at 1 h (male, C57BL/6, mouse, brain, 10 mg/kg, 10 mg/kg IP, 1 h, read-out: brain calculated concentration, individual (Group 1-3)): 12.4 ng/g
concentration at 2 h (male, C57BL/6, mouse, brain, 10 mg/kg, 10 mg/kg IP, 2 h, read-out: brain calculated concentration, Mean): 19.4 ng/g
concentration at 2 h (male, C57BL/6, mouse, brain, 10 mg/kg, 10 mg/kg IP, 2 h, read-out: brain calculated concentration, individual (Group 1-3)): 15.9 ng/g
concentration at 4 h (male, C57BL/6, mouse, brain, 10 mg/kg, 10 mg/kg IP, 4 h, read-out: brain calculated concentration, Mean): 10.9 ng/g
concentration at 4 h (male, C57BL/6, mouse, brain, 10 mg/kg, 10 mg/kg IP, 4 h, read-out: brain calculated concentration, individual (Group 1-3)): 9.5 ng/g
Kp at 0.25 h (male, C57BL/6, mouse, brain/plasma, ip, 10 mg/kg, 10 mg/kg IP, 0.25 h, read-out: Brain/plasma Ratio, Mean): 0.014
Kp at 0.25 h (male, C57BL/6, mouse, brain/plasma, ip, 10 mg/kg, 10 mg/kg IP, 0.25 h, read-out: Brain/plasma Ratio, individual (Group 1-3)): 0.01
Kp at 0.5 h (male, C57BL/6, mouse, brain/plasma, ip, 10 mg/kg, 10 mg/kg IP, 0.5 h, read-out: Brain/plasma Ratio, Mean): 0.014
Kp at 1 h (male, C57BL/6, mouse, brain/plasma, ip, 10 mg/kg, 10 mg/kg IP, 1 h, read-out: Brain/plasma Ratio, individual (Group 1-3)): 0.015
Kp (male, C57BL/6, mouse, brain/plasma, ip, 10 mg/kg, 10 mg/kg IP, read-out: Ratio_AUCLAST (Brain/plasma)): 0.02
AUC [1]: 64 ng·h/mL
Tmax [2]: 0.5 h
half-life (male, C57BL/6, mouse, brain, 10 mg/kg IP, read-out: t1/2 brain): > 4 h
concentration at 0.25 h (male, C57BL/6, mouse, plasma, 10 mg/kg, 10 mg/kg IP, 0.25 hr, read-out: plasma concentration, Mean): 1310 ng/mL
concentration at 0.25 h (male, C57BL/6, mouse, plasma, 10 mg/kg, 10 mg/kg IP, 0.25 hr, read-out: plasma concentration, individual (Group 1-3)): 1250 ng/mL
concentration at 0.5 h (male, C57BL/6, mouse, plasma, 10 mg/kg, 10 mg/kg IP, 0.5 hr, read-out: plasma concentration, Mean): 1870 ng/mL
concentration at 1 h (male, C57BL/6, mouse, plasma, 10 mg/kg, 10 mg/kg IP, 1 hr, read-out: plasma concentration, Mean): 1150 ng/mL
concentration at 1 h (male, C57BL/6, mouse, plasma, 10 mg/kg, 10 mg/kg IP, 1 hr, read-out: plasma concentration, individual (Group 1-3)): 1020 ng/mL
concentration at 2 h (male, C57BL/6, mouse, plasma, 10 mg/kg, 10 mg/kg IP, 2 hr, read-out: plasma concentration, Mean): 1090 ng/mL
concentration at 2 h (male, C57BL/6, mouse, plasma, 10 mg/kg, 10 mg/kg IP, 2 hr, read-out: plasma concentration, individual (Group 1-3)): 1060 ng/mL
concentration at 4 h (male, C57BL/6, mouse, plasma, 10 mg/kg, 10 mg/kg IP, 4 hr, read-out: plasma concentration, Mean): 319 ng/mL
Cmax [3]: 3300 nM
AUC(0-t) [3]: 3850 ng·h/mL
AUC(0-inf) (male, C57BL/6, mouse, plasma, 10 mg/kg IP, read-out: AUCINF plasma): 4550 ng·h/mL
Tmax [4]: 0.5 h
half-life [5]: 1.5 h
Cmax [6]: 1870 ng/mL

NC(=O)CC(F)(F)C(=O)N1N=C(c2c(-c3ccc(Cl)cc3)c3ccccc3[nH]c2=O)CC1c1ccc(Cl)cc1 (centres unmarked) [2k]
Cmax brain (10 mg/kg IP, C57BL/6 mice): 13 ng/mL
AUC [1]: 41 ng·h/mL
Tmax [2]: 4 h
AUC(0-t) [3]: 2270 ng·h/mL
Tmax [4]: 0.5 h
half-life [5]: 4.9 h
Cmax [6]: 815 ng/mL
